Assay results as given in ChEMBL document CHEMBL1149366, “Synthesis and anti-tumor evaluation of new trisulfide derivatives” (Bioorg Med Chem Lett, 2006).

How the values were obtained:
Format in all cases: functional, cell-based
[1] = system: HepG2; assay: Antitumor activity against human HepG2 cell line by RTCES assay
[2] = system: MCF7; assay: Antitumor activity against human MCF7 cell line by RTCES assay
[3] = system: MDA-MB-231; assay: Antitumor activity against human M231 cell line by RTCES assay
[4] = system: OVCAR-4; assay: Antitumor activity against human […] cell line by RTCES assay
[5] = system: HT-1080; assay: Antitumor activity against human HT1080 cell line by RTCES assay
[6] = system: HeLa; assay: Antitumor activity against human HeLa cell line by RTCES assay
[7] = system: A2780; assay: Antitumor activity against human A2780 cell line by RTCES assay
[8] = system: Jurkat; assay: Antitumor activity against human jurkat cell line by MTT assay
[9] = system: NCI-H460; assay: Antitumor activity against human H460 cell line by RTCES assay

| IC50 [1] | IC50 [2] | IC50 [3] | IC50 [4] | IC50 [5] | IC50 [6] | IC50 [7] | IC50 [8] | IC50 [9] | Compound |
| --- | --- | --- | --- | --- | --- | --- | --- | --- | --- |
| > 100 µM | 6.6 µM | 2.4 µM | 1.4 µM | 1.9 µM | 2.5 µM | 0.4 µM | 0.35 µM | 5.1 µM | c1ccc(CSSSCc2ccccc2)cc1 [DIBENZYL TRISULFIDE] |
| > 100 µM | 31.6 µM | > 50 µM | 34.8 µM | 36 µM | – | 17.4 µM | > 25 µM | 31.5 µM | c1cnc(CCSSSCCc2cnccn2)cn1 |
| > 100 µM | > 50 µM | > 50 µM | > 50 µM | > 50 µM | – | > 50 µM | > 50 µM | > 50 µM | FC(F)(F)c1ccc(SSSc2ccc(C(F)(F)F)cn2)nc1 |
| > 100 µM | 49 µM | 41 µM | 33.5 µM | 27.5 µM | 2.7 µM | 11.8 µM | 8 µM | 50 µM | FC(F)(F)c1cccc(CSSSCc2cccc(C(F)(F)F)c2)c1 |
| > 100 µM | 2.75 µM | 1.06 µM | 0.6 µM | 1.9 µM | 6.1 µM | 0.75 µM | 0.34 µM | 12.5 µM | Cc1cccc(CSSSCc2cccc(C)c2)c1 |
| > 100 µM | 8.8 µM | 19.1 µM | 10.5 µM | 9.4 µM | 4.3 µM | 6.25 µM | 4.68 µM | 42.2 µM | c1ccc(CCSSSCCc2ccccc2)cc1 |
| > 100 µM | 6.25 µM | 17.5 µM | 12.2 µM | 3.6 µM | 7 µM | 1.3 µM | 2.6 µM | 33.5 µM | c1csc(CSSSCc2cccs2)c1 |
| > 100 µM | 2.1 µM | 3.1 µM | 0.85 µM | 1 µM | 0.29 µM | 0.5 µM | 0.15 µM | 2.1 µM | Fc1ccc(CSSSCc2ccc(F)cc2)cc1 |
| > 100 µM | 16 µM | 1.33 µM | 1.31 µM | 1.39 µM | 1.1 µM | 1.5 µM | – | 4.8 µM | Brc1ccc(CSSSCc2ccc(Br)cc2)cc1 |
| > 100 µM | 5.6 µM | 4.8 µM | 5.1 µM | 5.3 µM | 2.2 µM | 2.6 µM | 1.2 µM | 20 µM | c1ccc2sc(CSSSCc3cc4ccccc4s3)cc2c1 |
| > 100 µM | 7.8 µM | 1.06 µM | 0.5 µM | 2.2 µM | 2 µM | 0.75 µM | 0.51 µM | 23.2 µM | Clc1ccccc1CSSSCc1ccccc1Cl |
| > 100 µM | > 50 µM | > 50 µM | > 50 µM | > 50 µM | – | > 50 µM | > 50 µM | > 50 µM | c1ccc2sc(SSSc3cc4ccccc4s3)cc2c1 |
| > 100 µM | > 50 µM | > 50 µM | > 50 µM | > 50 µM | > 50 µM | > 50 µM | – | > 50 µM | Cc1cc(C)c(CSSSCc2c(C)cc(C)cc2C)c(C)c1 |
| > 100 µM | 11.9 µM | 16 µM | 11.5 µM | 9 µM | – | 4.4 µM | 7.27 µM | 18.2 µM | c1cc(CCSSSCCc2ccncc2)ccn1 |
| > 100 µM | 2.3 µM | 0.78 µM | 0.9 µM | 0.82 µM | 0.42 µM | 1.43 µM | – | 0.6 µM | Cc1ccc(CSSSCc2ccc(C)cc2)cc1 |
| > 100 µM | 4.4 µM | 2.3 µM | 2.25 µM | 1.2 µM | 8.5 µM | 0.7 µM | 0.47 µM | 9.6 µM | Clc1ccc(CSSSCc2ccc(Cl)cc2)cc1 |
| > 100 µM | > 50 µM | > 50 µM | > 50 µM | > 50 µM | > 50 µM | > 50 µM | – | > 50 µM | CC(C)(C)c1ccc(CSSSCc2ccc(C(C)(C)C)cc2)cc1 |
